Data from patent publication US7763580B2, “Methods for treating conditions associated with the accumulation of excess extracellular matrix” (University of Utah Research Foundation, priority 1999, dated 2010).

What was measured:
[1] = system: adult human mesangial cells; experiment: Renin-induced TGFβ and fibronectin production by adult human mesangial cells (ELISA); type: cell-based; conditions: 10^−5 M inhibitor added at zero time with 10^−7 M human recombinant renin, adult cells, FIG. 7
Description: Primary cultures of adult human mesangial cells were grown from human nephrectomy tissues using standard methods. Cells were passaged 4-7 times and then plated (3,000 cell/cm^2) in 12 well plates in 2 ml of medium (Mesangial Basal Medium (Clonetics Corp.) containing 5% FCS, 10 μg/ml penicillin and 100 μg/ml streptomycin) and allowed to grow to 70% confluency for 48 hours at 37EC, 5% CO2. Cultures were washed three times using sterile phosphate buffered saline at room temperature and then 2 ml/well of serum free MBM medium to induce quiescence. After 48 hours, the serum-free medium was removed and 2 ml/well of fresh serum-free medium was added for 24 hours. Human recombinant renin (HrRenin, Hoffman-La Roche Ltd., Basel, Switzerland) in concentrations from 10^−6 to 10^−12 M was added to each well for 24 hours. A blank (no HrRenin) was used as a control. Cells and supernatants were harvested by centrifugation after 24 hrs of culture and frozen at ^−70EC until analysis.
The total production and release of TGFβ into the culture supernatant was measured using an ELISA kit (R & D Systems). Induction of the matrix protein fibronectin (Fn) in the supernatant was measured using anti-fibronectin antibodies in an ELISA to provide further confirmation of induction of TGFβ. Renin-induced induction of TGFβ, fibronectin and PAI-1 mRNA were measured over time using semi-quantitative RT-PCR in a multiplex system where multiple cDNAs are amplified simultaneously according to Dostal et al., Anal. Biochem. 223:239-250 (1994), incorporated by reference herein Determinations were done in triplicate mesangial cell cultures.
Renin inhibitor Ro42-5892 (Hoffman-LaRoche, Basel, Switzerland), Losartan™ (Merck Pharmaceuticals, West Point, Pa.), Enalapril™ (Sigma Chemical Co., St. Louis, Mo., Prod. No. E6888), or TGFβ1 neutralizing antibody (R & D Systems) were added in the amounts indicated below to separate wells in triplicate to block the renin cascade at different sites after stimulation by renin: • 10^−5 M Renin Inhibitor R042-5892 (Hoffman-LaRoche) • 10^−5 M Enalapril™ (Sigma Chemical Co., St. Louis, Mo.) • 10^−5 M Losartan™ (Merck Pharmaceuticals, West Point, Pa.) • Controls included neutralizing antibody to TGFβ (ATG) and control IgG (TgG)
These inhibitors were added at zero time with 10^−7 M human recombinant renin (Hoffman-LaRoche).

[2] = system: anti-Thy 1 glomerulonephritis; experiment: Proteinuria in anti-Thy 1 glomerulonephritis; type: in vivo, Sprague Dawley rats; conditions: enalapril monotherapy
Description: These experiments were performed on male Sprague Dawley rats (200-250 g) obtained from the Sasco colony of Charles River Laboratories (Wilmington, Mass., USA). Animal housing and care were in accordance with the NIH Guide for the Care and Use of Laboratory Animals, NIH Publication No. 85-23, 1985. Animals were fed a normal protein diet (22% protein, Teklad No. 86 550, Teklad Premier Laboratory Diets, Madison, Wis., USA). Glomerulonephritis was induced by tail vein injection of 2.25 mg/Kg of the monoclonal anti-Thy 1.1 antibody OX-7 (NCCC, Biovest International Inc, Minneapolis, Minn., USA). OX-7 binds to a Thy 1-like epitope on the surface of mesangial cells causing complement-dependent cell lysis followed by fibrotic tissue repair (Bagchus et al., Lab Invest. 55:680-687 (1986)). Control animals were injected with similar volumes of phosphate-buffered saline (PBS).
Groups of 8 rats were assigned and treated as outlined in Table 2. Doses of enalapril above […] in drinking water are maximally effective in this model (Peters et al., Kidney Int. 54:1570-1580 (1998)). A dose of […] enalapril was used here. […]
The disease-induced increase in a variable was defined as the mean value for the disease control group minus the mean value of the normal control group. The percent reduction in disease severity in a treated group was calculated as: […]

SMILES: CCOC(=O)[C@H](CCc1ccccc1)N[C@@H](C)C(=O)N1CCC[C@H]1C(=O)O [enalapril]
- renin-induced increase in TGFβ production [1]: does not reduce the renin-induced increase in TGFβ production
- reduction of disease-induced increases in urinary protein [2]: 78%
